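Assay format: 96-well plates, 48-hour exposure. At the TGI there is no net growth.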
Experiments:
Assay in all cases: growth of human tumour cells (NCI), 48 h
786-0 renal = tested on: 786-0 renal
COLO 205 colon = tested on: COLO 205 colon
EKVX NSCLC = tested on: EKVX NSCLC
HCT-116 colon = tested on: HCT-116 colon
HL-60(TB) leukemia = tested on: HL-60(TB) leukemia
NCI-H226 lung = tested on: NCI-H226 lung
NCI/ADR-RES ovarian = tested on: NCI/ADR-RES ovarian
SF-268 CNS = tested on: SF-268 CNS
SK-MEL-28 melanoma = tested on: SK-MEL-28 melanoma
UO-31 renal = tested on: UO-31 renal

Compound | TGI (786-0 renal) [µM] | TGI (COLO 205 colon) [µM] | TGI (EKVX NSCLC) [µM] | TGI (HCT-116 colon) [µM] | TGI (HL-60(TB) leukemia) [µM] | TGI (NCI-H226 lung) [µM] | TGI (NCI/ADR-RES ovarian) [µM] | TGI (SF-268 CNS) [µM] | TGI (SK-MEL-28 melanoma) [µM] | TGI (UO-31 renal) [µM]
O=C1CSC(c2cc3cc(Br)ccc3nc2Cl)N1c1ccc(F)c(Cl)c1 (centres undefined) | > 50 | > 50 | > 50 | > 50 | > 50 | > 50 | > 50 | > 50 | > 50 | > 50
O=C(Nc1ccccc1C(=O)O)C(=Cc1ccccc1O)NC(=O)c1ccccc1 | > 100 | > 100 | > 100 | > 100 | > 100 | > 100 | > 100 | > 100 | > 100 | > 100
CCOC(=O)/C=C/C(Br)=C(Br)/C=C/C(=O)OCC | 8.61 | 30.8 | 36.2 | 17 | 26.1 | 56.1 | 64.8 | 40.4 | 33.4 | 23.8
COc1cc(OC)cc(-c2nc3ccccc3c(=O)[nH]2)c1 | 66.2 | > 100 | > 100 | > 100 | > 100 | > 100 | > 100 | > 100 | > 100 | > 100
Cc1cc(=O)oc2c(CN(CCCl)CCCl)c(O)ccc12 | > 100 | 71.7 | > 100 | > 100 | 27.4 | > 100 | > 100 | > 100 | > 100 | > 100
CC(=O)O[C@H]1CC[C@]2(C=O)[C@H]3CC[C@]4(C)[C@@H](C5=CC(=O)OC5)CC[C@]4(O)[C@@H]3CC[C@]2(O)C1 | – | 1.64 | 0.615 | 0.5 | 5.18 | 1.97 | 0.467 | 0.806 | 3.22 | 1.48
Cc1cccc(-c2cc(=O)c3cc(C)cnc3[nH]2)c1 | > 100 | 0.382 | > 100 | 11.4 | 0.355 | 2.79 | 0.394 | > 100 | > 100 | > 100
CSC(=N/N=C(\C)c1ccc(S(=O)(=O)N(C)c2ccccc2)cc1)SC | > 100 | > 100 | > 100 | > 100 | > 100 | > 100 | > 100 | > 100 | > 100 | > 100
COc1nc2ncc([C@@H](O)[C@H](O)CO)nc2c(=O)[nH]1 | > 100 | > 100 | > 100 | > 100 | > 100 | > 100 | > 100 | > 100 | > 100 | > 100
CC(NC1=NCCO1)c1ccco1 (centres undefined) | > 100 | > 100 | > 100 | > 100 | > 100 | > 100 | > 100 | > 100 | > 100 | > 100
